Results from patent US9233979B2, “Compounds that are ERK inhibitors” (Merck Sharp & Dohme Corp., priority 2012, dated 2016).

target: phosphorylated active hERK2 enzyme (Homo sapiens (Human), UniProt P28482); test: Active Human ERK2 (hERK2) Activity Assay (IMAP-FP); type: biochemical; conditions: Table 5, 0.5 nM hERK2, 30 μM ATP, 10 point titration, read-out: AERK2 IC50
In short: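 IMAP fluorescence-polarization kinase assay: 0.5 nM activated hERK2 with 900 nM unlabeled plus 80 nM labeled peptide and 30 μM ATP, reacted 60 min. Quenched with IMAP beads in binding buffer with 24 mM NaCl; FP read after 60 min equilibration.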

phosphorylated active hERK2 enzyme, sequence (P28482 whole entry): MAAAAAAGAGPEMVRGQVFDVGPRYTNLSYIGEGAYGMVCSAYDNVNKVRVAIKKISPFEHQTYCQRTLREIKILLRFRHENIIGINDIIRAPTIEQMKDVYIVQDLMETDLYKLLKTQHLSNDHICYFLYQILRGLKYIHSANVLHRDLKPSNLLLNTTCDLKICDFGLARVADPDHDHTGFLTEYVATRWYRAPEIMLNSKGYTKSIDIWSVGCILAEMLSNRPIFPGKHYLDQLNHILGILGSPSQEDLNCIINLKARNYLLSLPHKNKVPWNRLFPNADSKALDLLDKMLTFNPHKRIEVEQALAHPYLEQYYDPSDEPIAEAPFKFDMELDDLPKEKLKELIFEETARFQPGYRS

| IC50 [nM] | Compound |
| --- | --- |
| 914 | C[C@@H](NC(=O)Nc1cc2[nH]nc(NS(=O)(=O)C3CC3)c2cn1)c1ccccc1 [Example 52, N-[6-({[(1R)-1-phenylethyl]carbamoyl}amino)-1H-pyrazolo[4,3-c]pyridin-3-yl]cyclopropanesulfonamide] |
| 42.1 | COCCN(C)c1n[nH]c2cc(NC(=O)N[C@H](C)c3ccccc3)ncc12 [Example 10, 1-{3-[(2-methoxyethyl)(methyl)amino]-1H-pyrazolo[4,3-c]pyridin-6-yl}-3-[(1R)-1-phenylethyl]urea] |
| 13.9 | CCNc1n[nH]c2cc(NC(=O)N[C@H](C)c3ccccc3)nc(C)c12 [Example 38, 1-[3-(ethylamino)-4-methyl-1H-pyrazolo[4,3-c]pyridin-6-yl]-3-[(1R)-1-phenylethyl]urea] |
| 0.37 | C[C@@H](NC(=O)Nc1cc2[nH]nc(N3CCOCC3)c2cn1)c1ccccc1 [Example 32, 1-(3-morpholin-4-yl-1H-pyrazolo[4,3-c]pyridin-6-yl)-3-[(1R)-1-phenylethyl]urea] |

same assay, conditions: Table 6, 0.5 nM hERK2, 30 μM ATP, 10 point titration, read-out: AERK2 IC50

| Compound | IC50 [nM] |
| --- | --- |
| CCNc1n[nH]c2cc(NC(=O)N[C@@H]3CCC[C@H]3OC)ncc12 [Example 411, 1-[3-(ethylamino)-1H-pyrazolo[4,3-c]pyridin-6-yl]-3-[(1R,2R)-2-methoxy-cyclopentyl]urea] | 99.3 |
| CC(C)C(=O)Nc1n[nH]c2cc(NC(=O)N[C@H](C)c3ccccc3)ncc12 [Example 163, 2-methyl-N-[6-({[(1R)-1-phenylethyl]-carbamoyl}amino)-1H-pypyrazolo[4,3-c]-pyridin-3-yl]propanamide] | 0.6 |
| [2H]C([2H])([2H])C([2H])([2H])Nc1n[nH]c2cc(NC(=O)N[C@H](C)c3ccccc3)ncc12 [Example 113, (R)-1-(3-((ethyl-D5)amino)-1H-pyrazolo[4,3-c]-pyridin-6-yl)-3-(1-phenylethyl)urea] | 1.6 |
| CC(C)(O)[C@@H](NC(=O)Nc1cc2[nH]nc(N3CC4CC3CO4)c2cn1)c1ccccc1 (stereo partly drawn) [Example 447, 1-[(1S)-2-hydroxy-2-methyl-1-phenylpropyl]-3-[3-(2-oxa-5-azabicyclo[2.2.1]-hept-5-yl)-1H-pyrazolo[4,3-c]-pyridin-6-yl]urea] | 1.5 |
| CCN1CCc2nc(NC(=O)N[C@H](C)c3ccccc3)cc3[nH]nc1c23 [Example 141, (R)-1-(3-ethyl-1,3,4,5-tetrahydropyrazolo[3,4,5-de][1,6]naphthyridin-7-yl)-3-(1-phenylethyl)urea] | 15.4 |
| C[C@@H](NC(=O)Nc1cc2[nH]nc(NCC(F)(F)F)c2cn1)c1ccccc1 [Example 341, 1-[(1R)-1-phenylethyl]-3-{3-[(2,2,2-trifluoro-ethyl)amino]-1H-pyrazolo[4,3-c]-pyridin-6-yl}urea] | 2.4 |
| C[C@@H](NC(=O)Nc1cc2[nH]nc(NC(=O)C(C)(C)C)c2cn1)c1ccccc1 [Example 215, 2,2-dimethyl-N-[6-({[(1R)-1-phenylethyl]-carbamoyl}amino)-1H-pyrazolo[4,3-c]pyridin-3-yl]-propanamide] | 3.9 |
| C[C@@H]1CN(c2n[nH]c3cc(NC(=O)N[C@@H](c4ccccc4)C(C)(C)O)ncc23)C[C@H](C(F)(F)F)O1 [Example 103, 1-[(1S)-2-hydroxy-2-methyl-1-phenylpropyl]-3-{3-[(2R,6R)-2-methyl-6-(trifluoromethyl)-morpholin-4-yl]-1H-pyrazolo[4,3-c]-pyridin-6-yl}urea] | 1.1 |
| C[C@@H](NC(=O)Nc1cc2[nH]nc(NC(=O)Cc3ccc(F)cc3)c2cn1)c1ccccc1 [Example 206, 2-(4-fluorophenyl)-N-[6-({[(1R)-1-phenylethyl]-carbamoyl}amino)-1H-pyrazolo[4,3-c]pyridin-3-yl]-acetamide] | 0.5 |
| C[C@@H](NC(=O)Nc1cc2[nH]nc(N[C@H]3COC[C@H]3F)c2cn1)c1ccccc1 [Example 85, 1-(3-{[(3S,4S)-4-fluorotetrahydrofuran-3-yl]amino}-1H-pyrazolo[4,3-c]-pyridin-6-yl)-3-[(1R)-1-phenylethyl]urea] | 0.8 |
| CCNc1n[nH]c2cc(NC(=O)N[C@H](C)c3ccc(Cl)cc3)ncc12 [Example 249, 1-[(1R)-1-(4-chlorophenyl)ethyl]-3-[3-(ethylamino)-1H-pyrazolo[4,3-c]pyridin-6-yl]urea] | 12 |
| COC(=O)Nc1n[nH]c2cc(NC(=O)N[C@@H](c3ccc(F)cc3)C(C)(C)O)ncc12 [Example 390, methyl [6-({[(1S)-1-(4-fluorophenyl)-2-hydroxy-2-methylpropyl]-carbamoyl}amino)-1H-pyrazolo[4,3-c]pyridin-3-yl]-carbamate] | 0.5 |
| COC[C@@H](NC(=O)Nc1cc2[nH]nc(N[C@H]3CCOC3)c2cn1)c1ccccc1 [Example 76, 1-[(1S)-2-methoxy-1-phenylethyl]-3-{3-[(3S)-tetrahydro-furan-3-ylamino]-1H-pyrazolo[4,3-c]-pyridin-6-yl}urea] | 1.3 |

Other lines, results leading:

| IC50 [nM] | Compound |
| --- | --- |
| 44.4 | CCNc1n[nH]c2cc(NC(=O)NC(C)c3cccnc3)ncc12 (centres unmarked) [Example 283, 1-[3-(ethylamino)-1H-pyrazolo[4,3-c]pyridin-6-yl]-3-(1-pyridin-3-ylethyl)urea] |
| 2.2 | CC(Nc1n[nH]c2cc(NC(=O)N[C@H](C)c3ccccc3)ncc12)C(F)(F)F (stereo partly drawn) [Example 419, 1-[(1R)-1-phenylethyl]-3-{3-[(2,2,2-trifluoro-1-methylethyl)amino]-1H-pyrazolo[4,3-c]pyridin-6-yl}urea] |
| 4.9 | CC(C)(O)[C@@H](NC(=O)Nc1cc2[nH]nc(NC(=O)N3CCC(F)(F)CC3)c2cn1)c1ccc(F)cc1 [Example 132, 4,4-difluoro-N-[6-({[(1S)-1-(4-fluorophenyl)-2-hydroxy-2-methylpropyl]-carbamoyl}amino)-1H-pyrazolo[4,3-c]pyridin-3-yl]-piperidine-1-carboxamide] |
| 0.4 | C[C@@H](NC(=O)Nc1cc2[nH]nc(N3CCc4nn(C)cc4C3)c2cn1)c1ccc(F)cc1 [Example 391, 1-[(1R)-1-(4-fluorophenyl)ethyl]-3-(2′-methyl-2′,4′,6′,7′-tetrahydro-1H-3,5′-bipyrazolo[4,3-c]-pyridin-6-yl)urea] |
| 325 | Nc1n[nH]c2cc(NC(=O)NC3COc4ccccc43)ncc12 (centres unmarked) [Example 259, 1-(3-amino-1H-pyrazolo[4,3-c]pyridin-6-yl)-3-(2,3-dihydro-1-benzofuran-3-yl)-urea] |
| 10.2 | C[C@@H](NC(=O)Nc1cc2[nH]nc(NC3CCC(F)(F)CC3)c2cn1)c1ccccc1 [Example 195, 1-{3-[(4,4-difluorocyclohexyl)amino]-1H-pyrazolo[4,3-c]-pyridin-6-yl}-3-[(1R)-1-phenylethyl]urea] |
| 1.3 | CC(C)(O)[C@@H](NC(=O)Nc1cc2[nH]nc3c2c(n1)CCN3)c1ccccc1 [Example 137, (S)-1-(2-hydroxy-2-methyl-1-phenylpropyl)-3-(1,3,4,5-tetrahydropyrazolo[3,4,5-de][1,6]naphthyridin-7-yl)urea] |
| 8.8 | Cc1ccc(Nc2n[nH]c3cc(NC(=O)N[C@H](C)c4ccccc4)ncc23)cn1 [Example 61, 1-{3-[(6-methylpyridin-3-yl)amino]-1H-pyrazolo[4,3-c]pyridin-6-yl}-3-[(1R)-1-phenylethyl]urea] |
| 134 | C[C@@H](NC(=O)Nc1cc2[nH]nc(NC(=O)N[C@H](C)c3ccc(Cl)nc3)c2cn1)c1ccc(Cl)nc1 [Example 312, N′,N″′-1H-pyrazolo[4,3-c]pyridine-3,6-diylbis{1-[(1R)-1-(6-chloropyridin-3-yl)ethyl]urea}] |
| 1.5 | COCc1nc(NC(=O)N[C@H](C)c2ccccc2)cc2[nH]nc(N)c12 [Example 69, (R)-1-(3-amino-4-(methoxymethyl)-1H-pyrazolo[4,3-c]pyridin-6-yl)-3-(1-phenylethyl)urea] |
| 4.5 | COC1CCN(c2n[nH]c3cc(NC(=O)N[C@H](C)c4ccccc4)ncc23)CC1 [Example 413, 1-[3-(4-methoxypiperidin-1-yl)-1H-pyrazolo[4,3-c]-pyridin-6-yl]-3-[(1R)-1-phenylethyl]urea] |
| 54.1 | C[C@@H](NC(=O)Nc1cc2[nH]nc(NC3(C)CCC3)c2cn1)c1ccccc1 [Example 356, 1-{3-[(1-methylcyclo-butyl)amino]-1H-pyrazolo[4,3-c]-pyridin-6-yl}-3-[(1R)-1-phenylethyl]urea] |
| 0.4 | COC(=O)Nc1n[nH]c2cc(NC(=O)N[C@@H](c3ccccc3)C(C)(C)O)ncc12 [Example 389, methyl [6-({[(1S)-2-hydroxy-2-methyl-1-phenyl-propyl]carbamoyl}amino)-1H-pyrazolo[4,3-c]-pyridin-3-yl]-carbamate] |
| 279 | C[C@@H](NC(=O)Nc1cc2[nH]nc(N(CC3CC3)CC3CC3)c2cn1)c1ccccc1 [Example 160, 1-{3-[bis(cyclopropyl-methyl)amino]-1H-pyrazolo[4,3-c]-pyridin-6-yl}-3-[(1R)-1-phenylethyl]urea] |
| 5.6 | C[C@@H](NC(=O)Nc1cc2[nH]nc(N)c2cn1)c1cccc(Cl)c1 [Example 272, 1-(3-amino-1H-pyrazolo[4,3-c]pyridin-6-yl)-3-[(1R)-1-(3-chloro-phenyl)ethyl]urea] |
| 13.8 | Cc1cccc(Cl)c1CNC(=O)Nc1cc2[nH]nc(N)c2cn1 [Example 266, 1-(3-amino-1H-pyrazolo[4,3-c]pyridin-6-yl)-3-(2-chloro-6-methylbenzyl)urea] |
| 365 | COC(=O)N[C@H](C(=O)Nc1n[nH]c2cc(NC(=O)N[C@H](C)c3ccc(F)cc3)ncc12)C1CCOCC1 [Example 65, methyl [(1S)-2-{[6-({[(1R)-1-(4-fluoro-phenyl)ethyl]carbamoyl}-amino)-1H-pyrazolo[4,3-c]-pyridin-3-yl]amino}-2-oxo-1-(tetrahydro-2H-pyran-4-yl)-ethyl]carbamate] |
| 2.5 | Nc1n[nH]c2cc(NC(=O)N[C@H](CO)c3ccccc3)ncc12 [Example 375, 1-(3-amino-1H-pyrazolo[4,3-c]-pyridin-6-yl)-3-[(1S)-2-hydroxy-1-phenylethyl]urea] |
